Reference: US9376454B2, “Beta-lactamase inhibitors” (priority 2013, dated 2016)

Columns and labels:
Type in all cases: biochemical
[1] = target: T1, SHV-5 β-lactamase (Klebsiella pneumoniae, UniProt P0A3M1); assay: β-Lactamase inhibition enzyme assay, SHV-5
T1 construct: made in house; host or cells: E. coli BL21(DE3)
Protocol: (§1) For SHV-5, Kpc-2, p99AmpC and OXA-1 β-lactamases, E. coli BL21(DE3) bacterial cells carrying expression plasmids (expressed as native untagged proteins) for the individual β-lactamases were grown in 1 L of Superbroth (Teknova Inc. Hollister, Calif.) supplemented with 100 μg/ml kanamycin selection and 1×5052 (0.5% glycerol, 0.05% glucose and 0.2% α-lactose) at 35° C. for 18-20 hours. Cells were harvested by centrifugation (4,000×g, 4° C., 20 min), resuspended in 50 ml of 10 mM HEPES pH 7.5 ( 1/20 of the initial volume). The cells were lysed by sonication (5 pulses of 45 seconds) at 45 W on ice. The lysates were clarified by centrifugation at 10,000×g for 40 minutes at 4° C. Samples were diluted 5-fold in 50 mM sodium acetate pH 5.0, stored overnight at 4° C., after which they were centrifuged at 10,000×g for 30 minutes to clarify, and filtered through 0.45 μm filters. The samples were loaded onto a 5 ml Capto S sepharose cation exchange column (GE Healthcare) pre-equilibrated with 50 mM sodium acetate pH 5.0. The column was washed with 5 column volumes of 50 mM sodium acetate pH 5.0 to wash out unbound protein and a linear gradient of NaCl (0 to 500 mM) was used to elute the protein (over 16 CV) from the column. Fractions were assayed for β-lactamase activity using Centa (Calbiochem, Gibbstown, N.J.) or Nitrocefin (EMD Millipore chemicals, Darmstadt, Germany) as a reporter β-lactamase substrate for activity in the isolated fractions. Active fractions were pooled, concentrated and further purified by gel filtration chromatography on a Superdex 75 prep grade gel filtration column (GE Healthcare, Piscataway, N.J.) pre-equilibrated in 50 mM Hepes pH 7.5, 150 mM NaCl. Active fractions were pooled concentrated, quantitated by BCA protein determination (Thermo Scientific, Rockford, Ill.), dialyzed into PBS and frozen at −80° C. in 20% glycerol until use.
(§2) An equal volume of diluted enzyme stock was added, and the plates were incubated at 37° C. for 15 min. Nitrocefin was used as substrate for p99 AmpC, VIM-2 and OXA-1 and dispensed into each well at a final concentration of 100 μM. Absorbance at 486 nm was immediately monitored for 10 min using a Biotek Powerwave XS2 microplate spectrophotometer using the GEN5 softweare package (Biotek Instruments, Winooski Vt.). In an analogous fashion, imipenem was used as substrate for Kpc-2 and Cefotaxime was used for SHV-5, while changes in absorbance upon hydrolysis of the β-lactam ring were monitored at 300 nm and 260 nm respectively in UV-transparent 96-well microtiter assay plates. Maximum rates of hydrolysis were compared to those in control wells (without inhibitors), and percentages of enzyme inhibition were calculated for each concentration of inhibitor. The concentration of inhibitor needed to reduce the initial rate of hydrolysis of substrate by 50% (IC50) was calculated as the residual activity of β-lactamase at 486 nm using GraFit version 7 kinetics software package (Erithacus Software, Surrey, UK).

[2] = target: T2, KPC-2 β-lactamase (Klebsiella pneumoniae, UniProt Q9F663); assay: β-Lactamase inhibition enzyme assay, KPC-2; settings: imipenem as substrate, 300 nm; 15 min at 37° C. with enzyme, PBS pH 7.4; read-out: Class A KPC-2 IC50
T2 construct: made in house; host or cells: E. coli BL21(DE3)
Protocol: as §1, §2

[3] = target: T3, VIM-2 metallo β-lactamase (Pseudomonas aeruginosa, UniProt Q9K2N0); assay: β-Lactamase inhibition enzyme assay, VIM-2; settings: Nitrocefin 100 μM as substrate, 486 nm; 15 min at 37° C. with enzyme, PBS pH 7.4; read-out: Class B VIM-2 IC50
T3 construct: made in house; host or cells: E. coli BL21(DE3)
Protocol: as §1
For Vim-2 metallo β-lactamase, the procedure was identical with the following exceptions, first the protein was not pH adjusted to pH 5 with 50 mM sodium acetate, second, the chromatography step was changed to a 5 ml Q sepharose anion exchange column pre-equilibrated with 50 mM Hepes pH 7.5, and elution of the protein was achieved by a linear gradient of NaCl (0-600 mM). Finally, the VIM-2 purification required a second run (3rd step) on the Q sepharose anion exchange column to achieve acceptable purity (>90%).
as §2

[4] = target: T4, p99 AmpC β-lactamase (Enterobacter cloacae, UniProt P05364); assay: β-Lactamase inhibition enzyme assay, p99 AmpC
T4 construct: made in house; host or cells: E. coli BL21(DE3)
Protocol: as §1, §2

[5] = target: T5, OXA-1 β-lactamase (Escherichia coli, UniProt P13661); assay: β-Lactamase inhibition enzyme assay, OXA-1; settings: Nitrocefin 100 μM as substrate, 486 nm; 15 min at 37° C. with enzyme, PBS pH 7.4; read-out: Class D OXA-1 IC50
T5 construct: made in house; host or cells: E. coli BL21(DE3)
Protocol: as §1, §2

T1 sequence (P0A3M1 22-286): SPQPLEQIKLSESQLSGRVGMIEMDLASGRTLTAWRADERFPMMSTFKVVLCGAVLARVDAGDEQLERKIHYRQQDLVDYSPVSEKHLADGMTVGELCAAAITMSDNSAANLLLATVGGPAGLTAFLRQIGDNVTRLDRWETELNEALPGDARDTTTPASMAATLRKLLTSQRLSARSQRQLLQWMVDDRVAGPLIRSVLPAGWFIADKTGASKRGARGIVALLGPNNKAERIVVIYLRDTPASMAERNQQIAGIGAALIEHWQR
T2 sequence (Q9F663 25-293, looked up): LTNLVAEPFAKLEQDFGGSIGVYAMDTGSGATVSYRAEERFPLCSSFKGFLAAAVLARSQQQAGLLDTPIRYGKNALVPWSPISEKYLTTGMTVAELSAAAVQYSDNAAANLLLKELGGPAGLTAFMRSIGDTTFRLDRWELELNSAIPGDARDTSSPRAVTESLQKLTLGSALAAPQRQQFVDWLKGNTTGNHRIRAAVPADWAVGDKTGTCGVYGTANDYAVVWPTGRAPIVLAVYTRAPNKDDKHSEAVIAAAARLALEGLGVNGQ
T4 sequence (P05364 21-381): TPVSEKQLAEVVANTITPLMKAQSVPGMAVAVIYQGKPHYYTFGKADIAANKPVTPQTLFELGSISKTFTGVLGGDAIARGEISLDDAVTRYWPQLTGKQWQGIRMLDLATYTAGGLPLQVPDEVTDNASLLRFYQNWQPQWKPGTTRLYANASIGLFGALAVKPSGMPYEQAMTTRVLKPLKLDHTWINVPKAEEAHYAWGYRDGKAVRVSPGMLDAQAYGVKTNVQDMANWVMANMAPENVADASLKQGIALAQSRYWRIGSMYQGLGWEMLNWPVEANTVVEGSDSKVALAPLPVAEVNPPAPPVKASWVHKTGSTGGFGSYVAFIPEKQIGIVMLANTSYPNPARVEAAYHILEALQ
T5 sequence (P13661 26-276): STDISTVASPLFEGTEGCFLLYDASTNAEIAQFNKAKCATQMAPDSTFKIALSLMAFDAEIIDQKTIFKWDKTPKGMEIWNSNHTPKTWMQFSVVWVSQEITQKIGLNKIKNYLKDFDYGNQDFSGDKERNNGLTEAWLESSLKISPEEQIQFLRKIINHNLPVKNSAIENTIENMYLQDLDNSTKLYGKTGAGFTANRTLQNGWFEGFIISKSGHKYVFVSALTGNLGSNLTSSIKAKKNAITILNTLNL

NC1=Nc2cc(C(=O)N[C@H]3Cc4cccc(C(=O)O)c4OB3O)ccc2CN1 [Example 15, (R)-3-(2-amino-3,4-dihydroquinazoline-7-carboxamido)-2-hydroxy-3,4-dihydro-2H-benzo[e][1,2]oxaborinine-8-carboxylic acid]
IC50 [1]: < 100 nM | IC50 [2]: 100 to 1000 nM | IC50 [3]: 1000 to 10000 nM | IC50 [4]: < 100 nM | IC50 [5]: 100 to 1000 nM

NCc1cc(C(=O)N[C@H]2Cc3cccc(C(=O)O)c3OB2O)cnc1CN [Example 62, (R)-3-(5,6-bis(aminomethyl)nicotinamido)-2-hydroxy-3,4-dihydro-2H-benzo[e][1,2]oxaborinine-8-carboxylic acid]
IC50 [1]: < 100 nM | IC50 [2]: < 100 nM | IC50 [3]: 100 to 1000 nM | IC50 [4]: < 100 nM | IC50 [5]: < 100 nM

O=C(N[C@H]1Cc2cccc(C(=O)O)c2OB1O)c1ccc2cc[nH]c2c1 [Example 30, (R)-2-hydroxy-3-(1H-indole-6-carboxamido)-3,4-dihydro-2H-benzo[e][1,2]oxaborinine-8-carboxylic acid]
IC50 [1]: 100 to 1000 nM | IC50 [2]: < 100 nM | IC50 [3]: 100 to 1000 nM | IC50 [4]: < 100 nM | IC50 [5]: < 100 nM

O=C(Cc1ccc2c(c1)CNCC2)N[C@H]1Cc2cccc(C(=O)O)c2OB1O [Example 51, (R)-2-Hydroxy-3-(2-1,2,3,4-tetrahydro-isoquinolin-7-yl-acetylamino)-3,4-dihydro-2H-benzo[e][1,2]oxaborinine-8-carboxylic acid]
IC50 [1]: < 100 nM | IC50 [2]: < 100 nM | IC50 [3]: < 100 nM | IC50 [4]: < 100 nM | IC50 [5]: < 100 nM

NCCNc1ccc(CC(=O)N[C@H]2Cc3cccc(C(=O)O)c3OB2O)c[n+]1[O-] [Example 61, (R)-2-(2-aminoethylamino)-5-(2-(8-carboxy-2-hydroxy-3,4-dihydro-2H-benzo[e][1,2]oxaborinin-3-ylamino)-2-oxoethyl)pyridine 1-oxide]
IC50 [1]: < 100 nM | IC50 [2]: < 100 nM | IC50 [3]: 100 to 1000 nM | IC50 [4]: < 100 nM | IC50 [5]: < 100 nM

NCCn1ccc2c(C(=O)N[C@H]3Cc4cccc(C(=O)O)c4OB3O)cccc21 [Example 42, (R)-3-{[1-(2-Amino-ethyl)-1H-indole-4-carbonyl]-amino}-2-hydroxy-3,4-dihydro-2H-benzo[e][1,2]oxaborinine-8-carboxylic acid]
IC50 [1]: < 100 nM | IC50 [2]: < 100 nM | IC50 [3]: 100 to 1000 nM | IC50 [4]: < 100 nM | IC50 [5]: < 100 nM

N=C(N)NCc1cc(CNC(=N)N)cc(C(=O)N[C@H]2Cc3cccc(C(=O)O)c3OB2O)c1 [Example 45, (R)-3-(3,5-bis(guanidinomethyl)benzamido)-2-hydroxy-3,4-dihydro-2H-benzo[e][1,2]oxaborinine-8-carboxylic acid]
IC50 [1]: 100 to 1000 nM | IC50 [2]: < 100 nM | IC50 [3]: < 100 nM | IC50 [4]: < 100 nM | IC50 [5]: < 100 nM

NCCOc1ccc(C(=O)N[C@H]2Cc3cccc(C(=O)O)c3OB2O)cc1O [Example 40, (R)-3-(4-(2-aminoethoxy)-3-hydroxybenzamido)-2-hydroxy-3,4-dihydro-2H-benzo[e][1,2]oxaborinine-8-carboxylic acid]
IC50 [1]: 100 to 1000 nM | IC50 [2]: < 100 nM | IC50 [3]: < 100 nM | IC50 [4]: < 100 nM | IC50 [5]: < 100 nM

NCCN1Cc2ccc(C(=O)N[C@H]3Cc4cccc(C(=O)O)c4OB3O)cc2C1 [Example 11, (R)-3-(2-(2-aminoethyl)isoindoline-5-carboxamido)-2-hydroxy-3,4-dihydro-2H-benzo[e][1,2]oxaborinine-8-carboxylic acid]
IC50 [1]: < 100 nM | IC50 [2]: < 100 nM | IC50 [3]: 100 to 1000 nM | IC50 [4]: < 100 nM | IC50 [5]: < 100 nM

O=C(N[C@H]1Cc2cccc(C(=O)O)c2OB1O)c1ccc2ncccc2c1 [Example 28, (R)-2-hydroxy-3-(quinoline-6-carboxamido)-3,4-dihydro-2H-benzo[e][1,2]oxaborinine-8-carboxylic acid]
IC50 [1]: < 100 nM | IC50 [2]: < 100 nM | IC50 [3]: 1000 to 10000 nM | IC50 [4]: < 100 nM | IC50 [5]: < 100 nM

NC1=NCc2ccc(C(=O)N[C@H]3Cc4cccc(C(=O)O)c4OB3O)cc2CN1 [Example 17, (R)-3-(3-amino-4,5-dihydro-1H-benzo[e][1,3]diazepine-7-carboxamido)-2-hydroxy-3,4-dihydro-2H-benzo[e][1,2]oxaborinine-8-carboxylic acid]
IC50 [1]: < 100 nM | IC50 [2]: < 100 nM | IC50 [3]: < 100 nM | IC50 [4]: < 100 nM | IC50 [5]: < 100 nM

CN1Cc2ccc(CC(=O)N[C@H]3Cc4cccc(C(=O)O)c4OB3O)cc2C1 [Example 48, (R)-2-Hydroxy-3-[2-(2-methyl-2,3-dihydro-1H-isoindol-5-yl)-acetylamino]-3,4-dihydro-2H-benzo[e][1,2]oxaborinine-8-carboxylic acid]
IC50 [1]: < 100 nM | IC50 [2]: < 100 nM | IC50 [3]: < 100 nM | IC50 [4]: < 100 nM | IC50 [5]: < 100 nM

O=C(N[C@H]1Cc2cccc(C(=O)O)c2OB1O)c1ccc2nccnc2c1 [Example 29, (R)-2-hydroxy-3-(quinoxaline-6-carboxamido)-3,4-dihydro-2H-benzo[e][1,2]oxaborinine-8-carboxylic acid]
IC50 [1]: < 100 nM | IC50 [2]: < 100 nM | IC50 [3]: 1000 to 10000 nM | IC50 [4]: < 100 nM | IC50 [5]: < 100 nM

Cn1ccc2ccc(C(=O)N[C@H]3Cc4cccc(C(=O)O)c4OB3O)cc21 [Example 43, (R)-2-Hydroxy-3-[(1-methyl-1H-indole-6-carbonyl)-amino]-3,4-dihydro-2H-benzo[e][1,2]oxaborinine-8-carboxylic acid]
IC50 [1]: 100 to 1000 nM | IC50 [2]: < 100 nM | IC50 [3]: 100 to 1000 nM | IC50 [4]: < 100 nM | IC50 [5]: < 100 nM

NCCn1ccc2ccc(C(=O)N[C@H]3Cc4cccc(C(=O)O)c4OB3O)cc21 [Example 41, (R)-3-{[1-(2-Amino-ethyl)-1H-indole-6-carbonyl]-amino}-2-hydroxy-3,4-dihydro-2H-benzo[e][1,2]oxaborinine-8-carboxylic acid]
IC50 [1]: < 100 nM | IC50 [2]: < 100 nM | IC50 [3]: < 100 nM | IC50 [4]: < 100 nM | IC50 [5]: < 100 nM

O=C(N[C@H]1Cc2cccc(C(=O)O)c2OB1O)c1ccc(O)c(O)c1 [Example 39, (R)-3-(3,4-dihydroxybenzamido)-2-hydroxy-3,4-dihydro-2H-benzo[e][1,2]oxaborinine-8-carboxylic acid]
IC50 [1]: 100 to 1000 nM | IC50 [2]: < 100 nM | IC50 [3]: 100 to 1000 nM | IC50 [4]: < 100 nM | IC50 [5]: < 100 nM

CN1CCc2c(C(=O)N[C@H]3Cc4cccc(C(=O)O)c4OB3O)csc2C1 [Example 6, (R)-2-hydroxy-3-(6-methyl-4,5,6,7-tetrahydrothieno[2,3-c]pyridine-3-carboxamido)-3,4-dihydro-2H-benzo[e][1,2]oxaborinine-8-carboxylic acid]
IC50 [1]: < 100 nM | IC50 [2]: < 100 nM | IC50 [3]: 1000 to 10000 nM | IC50 [4]: < 100 nM | IC50 [5]: < 100 nM

O=C(O)c1cccc2c1OB(O)[C@@H](NC(=O)c1cccc3cc[nH]c13)C2 [Example 31, (R)-2-hydroxy-3-(1H-indole-7-carboxamido)-3,4-dihydro-2H-benzo[e][1,2]oxaborinine-8-carboxylic acid]
IC50 [1]: 100 to 1000 nM | IC50 [2]: < 100 nM | IC50 [3]: 1000 to 10000 nM | IC50 [4]: < 100 nM | IC50 [5]: < 100 nM
